In patent publication US20230085307A1, “PYRIDAZINONE COMPOUND AND HERBICIDE” (NISSAN CHEMICAL CORPORATION, priority 2019, published 2023):

Key:
barnyard grass [1] = assay: Test Example 3: herbicidal effect by foliage application, Wagner pot (Table 18, symbol H); type: in vivo, barnyard grass (Echinochloa crus-galli); details: 320 g/ha
Method in brief: (§1)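 Plants were sown in alluvial soil held under 0.1–0.5 cm standing water and grown 14 days in a greenhouse at 25–30 °C. An emulsifiable formulation, water-diluted to the set dose, was then sprayed onto the foliage, and effects were scored three weeks later using previously defined criteria.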

blackgrass [2] = assay: Test Example 5: herbicidal effect by foliage application, plastic box (Table 20, symbol J); type: in vivo, blackgrass (Alopecurus myosuroides); details: foliage application, 320 g/ha, 3 weeks after application
Method in brief: (§2)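 Post-emergence foliar test in sterilized diluvial soil. Compound applied as water-diluted emulsion at a predetermined rate to 14-day-old plants; evaluation at three weeks.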

velvetleaf [3] = assay: Test Example 4: herbicidal effect by soil treatment (Table 19, symbol M); type: in vivo, velvetleaf (Abutilon theophrasti); details: AAH 320 g/ha
Description: (§3) [Test Example 4] Herbicidal Effect Test by Soil Treatment
(§4) Sterilized diluvial soil was placed in a plastic box having a length of 21 cm, a width of 13 cm, and a depth of 7 cm. The seeds of each of southern crabgrass, green foxtail, barnyard grass, wild oat, blackgrass, Italian ryegrass, windgrass, velvetleaf, redroot pigweed, lambsquarters, chickweed, false cleavers, persian speedwell, corn, soybean, rice, wheat, beet, and rapeseed were sowed in a spot-like manner and covered with the soil having a thickness of about 1.5 cm. Subsequently, the emulsion agent of the compound of the present invention prepared according to Formulation Example 2 was diluted with water so as to achieve a predetermined herbicide amount, and the diluted emulsion agent was uniformly applied to the surface of the soil with a small-sized spray. The plastic box was placed in a greenhouse at 25° C. to 30° C. for growth of the plants. Three weeks after the herbicide application, the effect of the herbicide on each plant was evaluated according to the criteria of Test Example 1.

Italian ryegrass [4] = assay: Test Example 5: herbicidal effect by foliage application, plastic box (Table 20, symbol K); type: in vivo, Italian ryegrass (Lolium multiflorum); details: foliage application, 320 g/ha, 3 weeks after application
Method in brief: as §2

rice flat sedge = assay: Test Example 3: herbicidal effect by foliage application, Wagner pot (Table 18, symbol E); type: in vivo, rice flat sedge (Cyperus iria); details: 320 g/ha
Method in brief: as §1

velvetleaf [5] = assay: Test Example 5: herbicidal effect by foliage application, plastic box (Table 20, symbol M); type: in vivo, velvetleaf (Abutilon theophrasti); details: foliage application, 320 g/ha, 3 weeks after application
Method in brief: as §2

persian speedwell = assay: Test Example 5: herbicidal effect by foliage application, plastic box (Table 20, symbol R); type: in vivo, Persian speedwell (Veronica persica); details: foliage application, 320 g/ha, 3 weeks after application
Method in brief: as §2

lambsquarters [6] = assay: Test Example 5: herbicidal effect by foliage application, plastic box (Table 20, symbol O); type: in vivo, lambsquarters (Chenopodium album); details: foliage application, 320 g/ha, 3 weeks after application
Method in brief: as §2

green foxtail [7] = assay: Test Example 5: herbicidal effect by foliage application, plastic box (Table 20, symbol G); type: in vivo, green foxtail (Setaria viridis); details: foliage application, 320 g/ha, 3 weeks after application
Method in brief: as §2

wild oat [8] = assay: Test Example 5: herbicidal effect by foliage application, plastic box (Table 20, symbol I); type: in vivo, wild oat (Avena fatua); details: foliage application, 320 g/ha, 3 weeks after application
Method in brief: as §2

blackgrass [9] = assay: Test Example 4: herbicidal effect by soil treatment (Table 19, symbol J); type: in vivo, blackgrass (Alopecurus myosuroides); details: AAH 320 g/ha
Description: as §3, §4

Chinese sprangletop = assay: Test Example 3: herbicidal effect by foliage application, Wagner pot (Table 18, symbol D); type: in vivo, chinese sprangletop (Leptochloa chinensis); details: 320 g/ha
Method in brief: as §1

barnyard grass [10] = assay: Test Example 5: herbicidal effect by foliage application, plastic box (Table 20, symbol H); type: in vivo, barnyard grass (Echinochloa crus-galli); details: foliage application, 320 g/ha, 3 weeks after application
Method in brief: as §2

chickweed = assay: Test Example 4: herbicidal effect by soil treatment (Table 19, symbol P); type: in vivo, common chickweed (Stellaria media); details: AAH 320 g/ha
Description: as §3, §4

southern crabgrass [11] = assay: Test Example 4: herbicidal effect by soil treatment (Table 19, symbol F); type: in vivo, southern crabgrass (Digitaria ciliaris); details: AAH 320 g/ha
Method in brief: (§5)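 Emulsion of test compound, water-diluted to predetermined amount, sprayed on soil after sowing (seed depth ~1.5 cm, sterilized diluvial soil). Greenhouse, 25–30° C. Effect graded at three weeks post-spray.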

lambsquarters [12] = assay: Test Example 4: herbicidal effect by soil treatment (Table 19, symbol O); type: in vivo, lambsquarters (Chenopodium album); details: AAH 320 g/ha
Description: as §3, §4

southern crabgrass [13] = assay: Test Example 5: herbicidal effect by foliage application, plastic box (Table 20, symbol F); type: in vivo, southern crabgrass (Digitaria ciliaris); details: foliage application, 320 g/ha, 3 weeks after application
Method in brief: as §2

barnyard grass [14] = assay: Test Example 4: herbicidal effect by soil treatment (Table 19, symbol H); type: in vivo, barnyard grass (Echinochloa crus-galli); details: AAH 320 g/ha
Description: as §3, §4

windgrass [15] = assay: Test Example 4: herbicidal effect by soil treatment (Table 19, symbol L); type: in vivo, windgrass (Apera spica-venti); details: AAH 320 g/ha
Description: as §3, §4

wild oat [16] = assay: Test Example 4: herbicidal effect by soil treatment (Table 19, symbol I); type: in vivo, wild oat (Avena fatua); details: AAH 320 g/ha
Description: as §3, §4

windgrass [17] = assay: Test Example 5: herbicidal effect by foliage application, plastic box (Table 20, symbol L); type: in vivo, windgrass (Apera spica-venti); details: foliage application, 320 g/ha, 3 weeks after application
Method in brief: as §2

green foxtail [18] = assay: Test Example 4: herbicidal effect by soil treatment (Table 19, symbol G); type: in vivo, green foxtail (Setaria viridis); details: AAH 320 g/ha
Method in brief: as §5

Italian ryegrass [19] = assay: Test Example 4: herbicidal effect by soil treatment (Table 19, symbol K); type: in vivo, Italian ryegrass (Lolium multiflorum); details: AAH 320 g/ha
Description: as §3, §4

redroot pigweed = assay: Test Example 4: herbicidal effect by soil treatment (Table 19, symbol N); type: in vivo, redroot pigweed (Amaranthus retroflexus); details: AAH 320 g/ha
Description: as §3, §4

## Cc1nn(C)c(=O)c(-c2c(-c3ccc(CSC(C)C)cc3)sc3ccccc23)c1O [1-243]
Barnyard grass [1]
  herbicidal effect on H (barnyard grass), rating 0-5: 5 (Herbicidal rate of 90% or more (almost completely withered))
Blackgrass [2]
  effect on blackgrass (J): 2 (Herbicidal rate of 20% or more and less than 40%)
Velvetleaf [3]
  M: velvetleaf, herbicidal effect rating: 1 (Herbicidal rate of 5% or more and less than 20%)
Italian ryegrass [4]
  effect on Italian ryegrass (K): 3 (Herbicidal rate of 40% or more and less than 70%)
Rice flat sedge
  herbicidal effect on E (rice flat sedge), rating 0-5: 4 (Herbicidal rate of 70% or more and less than 90%)
Velvetleaf [5]
  effect on velvetleaf (M): 5 (Herbicidal rate of 90% or more (almost completely withered))
Persian speedwell
  effect on persian speedwell (R): 5 (Herbicidal rate of 90% or more (almost completely withered))
Lambsquarters [6]
  effect on lambsquarters (O): 4 (Herbicidal rate of 70% or more and less than 90%)
Green foxtail [7]
  effect on green foxtail (G): 4 (Herbicidal rate of 70% or more and less than 90%)
Wild oat [8]
  effect on wild oat (I): 2 (Herbicidal rate of 20% or more and less than 40%)
Blackgrass [9]
  J: blackgrass, herbicidal effect rating: 0 (Herbicidal rate of 5% or less (almost no effect))
Chinese sprangletop
  herbicidal effect on D (Chinese sprangletop), rating 0-5: 4 (Herbicidal rate of 70% or more and less than 90%)
Barnyard grass [10]
  effect on barnyard grass (H): 4 (Herbicidal rate of 70% or more and less than 90%)
chickweed
  P: chickweed, herbicidal effect rating: 0 (Herbicidal rate of 5% or less (almost no effect))
Southern crabgrass [11]
  F: southern crabgrass, herbicidal effect rating: 0 (Herbicidal rate of 5% or less (almost no effect))
Lambsquarters [12]
  O: lambsquarters, herbicidal effect rating: 3 (Herbicidal rate of 40% or more and less than 70%)
Southern crabgrass [13]
  effect on southern crabgrass (F): 3 (Herbicidal rate of 40% or more and less than 70%)
Barnyard grass [14]
  H: barnyard grass, herbicidal effect rating: 0 (Herbicidal rate of 5% or less (almost no effect))
Windgrass [15]
  L: windgrass, herbicidal effect rating: 0 (Herbicidal rate of 5% or less (almost no effect))
Wild oat [16]
  I: wild oat, herbicidal effect rating: 0 (Herbicidal rate of 5% or less (almost no effect))
Windgrass [17]
  effect on windgrass (L): 0 (Herbicidal rate of 5% or less (almost no effect))
Green foxtail [18]
  G: green foxtail, herbicidal effect rating: 0 (Herbicidal rate of 5% or less (almost no effect))
Italian ryegrass [19]
  K: Italian ryegrass, herbicidal effect rating: 0 (Herbicidal rate of 5% or less (almost no effect))
Redroot pigweed
  N: redroot pigweed, herbicidal effect rating: 4 (Herbicidal rate of 70% or more and less than 90%)
